Read-outs that look alike come from different tables or passages of the source.
Test system: HCV 1b-377-neo replicon cells
Experiment: HCV replicon assay, HCV 1b-377-neo replicon cells (1b FRET)
Assay type: cell-based, Hepatitis C virus genotype 1b
Details: HCV 1b-377-neo replicon cells, HCV 1b genotype, read-out: EC50 range against HCV 1b (Table 2, Range)
Description: An HCV Replion assay was utilized in the present disclosure, and was prepared, conducted and validated as described in commonly owned PCT/US2006/022197 and in O'Boyle et. al. Antimicrob Agents Chemother. 2005 April; 49(4):1346-53.
HCV 1b-377-neo replicon cells were used to test the currently described compound series as well as cells resistant to compound A due to a Y2065H mutation in NS5A (described in application PCT/US2006/022197). The compounds tested were determined to have more than 10-fold less inhibitory activity on cells resistant to compound A than wild-type cells indicating a related mechanism of action between the two compound series. Thus, the compounds of the present disclosure can be effective to inhibit the function of the HCV NS5A protein and are understood to be as effective in combinations as previously described in application PCT/US2006/022197 and commonly owned WO/04014852. Further, the compounds of the present disclosure can be effective against the HCV 1b genotype. It should also be understood that the compounds of the present disclosure can inhibit multiple genotypes of HCV. […] In one embodiment compounds of the present disclosure are active against the 1a, 1b, 2a, 2b, 3a, 4a, and 5a genotypes.

Structure (SMILES)	EC50 (Hepatitis C virus) [nM]	EC50 [nM]
COC(=O)N[C@H](C(=O)N1CCCC1c1ncc(-c2ccc(-c3ccc(-c4cnc([C@]5(C)CCCN5C(=O)[C@@H](NC(=O)OC)[C@@H](C)OC)[nH]4)cc3)cc2)[nH]1)[C@@H](C)OC (some centres unmarked)	0.001 to 0.999	
COC(=O)N[C@H](C(=O)N1CCC[C@H]1c1ncc(-c2ccc(-c3ccc(-c4cnc([C@@H]5CCCN5C(=O)[C@@H](Nc5n[nH]c(N)n5)C(C)C)[nH]4)cc3)cc2)[nH]1)C(C)C	0.001 to 0.999	
CCN(CC)[C@@H](C(=O)N1CCC[C@H]1c1ncc(-c2ccc(-c3ccc(-c4cnc([C@@H]5CC(F)(F)CN5C(=O)[C@@H](c5ccccc5)N(CC)CC)[nH]4)cc3)cc2)[nH]1)c1ccccc1 (mixture of isomers) [OL-13, rac-(1R)-2-((2S)-2-(4-(4′-(2-((2S)-1-((2R)-2-(diethylamino)-2-phenylacetyl)-4,4-difluoro-2-pyrrolidinyl)-1H-imidazol-4-yl)-4-biphenylyl)-1H-imidazol-2-yl)-1-pyrrolidinyl)-N,N-diethyl-2-oxo-1-phenylethanamine]	0.001 to 0.999	
CN(C)C(C(=O)N1CCC[C@H]1c1nc(-c2ccc(-c3ccc(-c4cnc([C@@H]5CC6CCCCC6N5C(=O)[C@@H](c5ccccc5)N(C)C)[nH]4)cc3)cc2)c[nH]1)c1ccccc1 (relative stereo) [Example F7, rel-(1R)-2-((2S)-2-(4-(4′-(2-((2S)-1-((2R)-2-(dimethylamino)-2-phenylacetyl)octahydro-1H-indol-2-yl)-1H-imidazol-5-yl)-4-biphenylyl)-1H-imidazol-2-yl)-1-pyrrolidinyl)-N,N-dimethyl-2-oxo-1-phenylethanamine]	0.001 to 0.999	
COC(=O)N[C@@H](C(=O)N1CCC[C@H]1c1nc(-c2ccc(-c3ccc(-c4cnc([C@@H]5CC6CCCCC6N5C(=O)[C@H](NC(=O)OC)c5ccccc5)[nH]4)cc3)cc2)c[nH]1)c1ccccc1 (relative stereo) [Example F8, methyl rel-((1R)-2-((2S)-2-(4-(4′-(2-((2S)-1-((2R)-2-((methoxycarbonyl)amino)-2-phenylacetyl)octahydro-1H-indol-2-yl)-1H-imidazol-5-yl)-4-biphenylyl)-1H-imidazol-2-yl)-1-pyrrolidinyl)-2-oxo-1-phenylethyl)carbamate]	0.001 to 0.999	
CN(C)[C@@H](C(=O)N1CCC[C@H]1c1nc(-c2ccc(-c3ccc(-c4cn(C)c([C@@H]5CCCN5C(=O)[C@@H](c5ccccc5)N(C)C)n4)cc3)cc2)cn1C)c1ccccc1 (single isomer, unassigned) [151 isomer 1]		1 to 99
CN(C)[C@@H](C(=O)N1CCC[C@H]1c1nc(-c2ccc(-c3ccc(-c4cn(C)c([C@@H]5CCCN5C(=O)[C@@H](c5ccccc5)N(C)C)n4)cc3)cc2)cn1C)c1ccccc1 (single isomer, unassigned) [151 isomer 2]		100 to 999
O=C(OCc1ccccc1)N1CCN(C(C(=O)N2CCC[C@H]2c2ncc(-c3ccc(-c4ccc(-c5c[nH]c([C@@H]6CCCN6C(=O)[C@H]6CCCO6)n5)cc4)cc3)[nH]2)c2ccccc2)CC1 (single isomer, unassigned) [Example 103-5]		0.001 to 0.999
O=C(OCc1ccccc1)N1CCN(C(C(=O)N2CCC[C@H]2c2ncc(-c3ccc(-c4ccc(-c5c[nH]c([C@@H]6CCCN6C(=O)[C@H]6CCCO6)n5)cc4)cc3)[nH]2)c2ccccc2)CC1 (single isomer, unassigned) [Example 103-6]		1 to 99
CC(=O)OC(C(=O)N1CCC[C@H]1c1ncc(-c2ccc(-c3ccc(-c4cnc([C@@H]5CCCN5C(=O)[C@@H](c5ccccc5)N5CCCCC5)[nH]4)cc3)cc2)[nH]1)c1ccccc1 (stereo in doubt) [Example 107-1, (1S)-2-oxo-1-phenyl-2-((2S)-2-(5-(4′-(2-((2S)-1-((2R)-2-phenyl-2-(1-piperidinyl)acetyl)-2-pyrrolidinyl)-1H-imidazol-5-yl)-4-biphenylyl)-1H-imidazol-2-yl)-1-pyrrolidinyl) ethyl acetate]	0.001 to 0.999	
CC(=O)OC(C(=O)N1CCC[C@H]1c1ncc(-c2ccc(-c3ccc(-c4cnc([C@@H]5CCCN5C(=O)[C@@H](c5ccccc5)N5CCCCC5)[nH]4)cc3)cc2)[nH]1)c1ccccc1 (stereo in doubt) [Example 107-21, (1R)-2-oxo-1-phenyl-2-((2S)-2-(5-(4′-(2-((2S)-1-((2R)-2-phenyl-2-(1-piperidinyl)acetyl)-2-pyrrolidinyl)-1H-imidazol-5-yl)-4-biphenylyl)-1H-imidazol-2-yl)-1-pyrrolidinyl)ethyl acetate]	0.001 to 0.999	
CC(=O)OC(C(=O)N1CCC[C@H]1c1ncc(-c2ccc(-c3ccc(-c4cnc([C@@H]5CCCN5C(=O)[C@@H](c5ccccc5F)N(C)C)[nH]4)cc3)cc2)[nH]1)c1ccccc1 (stereo in doubt) [Example 107-33, (1R)-2-((2S)-2-(5-(4′-(2-((2S)-1-((2R)-2-(dimethylamino)-2-(2-fluorophenyl)acetyl)-2-pyrrolidinyl)-1H-imidazol-5-yl)-4-biphenylyl)-1H-imidazol-2-yl)-1-pyrrolidinyl)-2-oxo-1-phenylethyl acetate]	0.001 to 0.999	
COC(=O)NC(C(=O)N1CCC[C@H]1c1ncc(-c2ccc(-c3ccc(-c4cnc([C@@H]5CCCN5C(=O)[C@@H](NC(=O)OC)C(C)C)[nH]4)cc3)cc2F)[nH]1)[C@@H](C)OC (stereo in doubt) [Example D42, methyl ((1S,2R)-1-(((2S)-2-(5-(3-fluoro-4′-(2-((2S)-1-(N-(methoxycarbonyl)-L-valyl)-2-pyrrolidinyl)-1H-imidazol-5-yl)-4-biphenylyl)-1H-imidazol-2-yl)-1-pyrrolidinyl)carbonyl)-2-methoxypropyl) carbamate]	0.001 to 0.999	
COC(=O)N[C@H](C(=O)N1CCC[C@H]1c1ncc(-c2ccc(-c3ccc(-c4cnc([C@@H]5CCCN5C(=O)[C@@H](NC(=O)OC)C(C)OC)[nH]4)c(F)c3)cc2F)[nH]1)C(C)C (stereo in doubt) [Example D56, methyl ((1S,2R)-1-(((2S)-2-(5-(3,3′-difluoro-4′-(2-((2S)-1-(N-(methoxycarbonyl)-L-valyl)-2-pyrrolidinyl)-1H-imidazol-5-yl)-4-biphenylyl)-1H-imidazol-2-yl)-1-pyrrolidinyl)carbonyl)-2-methoxypropyl) carbamate]	0.001 to 0.999	
COC(=O)N[C@H](C(=O)N1CCC[C@H]1c1ncc(-c2ccc(-c3ccc(-c4nc([C@@H]5CCCN5C(=O)[C@@H](NC(=O)OC)[C@@H](C)OC)[nH]c4C)cc3)cc2)[nH]1)C(C)OC (stereo in doubt) [Example E5f, methyl ((1S,2R)-2-methoxy-1-(((2S)-2-(4-(4′-(2-((2S)-1-(N-(methoxycarbonyl)-O-methyl-L-threonyl)-2-pyrrolidinyl)-4-methyl-1H-imidazol-5-yl)-4-biphenylyl)-1H-imidazol-2-yl)-1-pyrrolidinyl)carbonyl)propyl)carbamate]	0.001 to 0.999	
COC(=O)N[C@H](C(=O)N1CCC[C@H]1c1nc(C)c(-c2ccc(-c3ccc(-c4nc([C@@H]5CCCN5C(=O)[C@@H](NC(=O)OC)[C@@H](C)OC)[nH]c4C)cc3)cc2)[nH]1)C(C)OC (stereo in doubt) [Example E5m, methyl ((1S,2R)-2-methoxy-1-(((2S)-2-(4-(4′-(2-((2S)-1-(N-(methoxycarbonyl)-O-methyl-L-threonyl)-2-pyrrolidinyl)-5-methyl-1H-imidazol-4-yl)-4-biphenylyl)-5-methyl-1H-imidazol-2-yl)-1-pyrrolidinyl)carbonyl)propyl)carbamate]	0.001 to 0.999	
CCN(CC)C(C)C(=O)N1CCC[C@H]1c1nc(C(F)(F)F)c(-c2ccc(-c3ncc(-c4cnc([C@@H]5CCCN5C(=O)[C@@H](C)N(CC)CC)[nH]4)cn3)cc2)[nH]1 (stereo in doubt) [Example J51, (2R)-1-((2S)-2-(5-(4-(5-(2-((2S)-1-((2R)-2-(diethylamino)propanoyl)-2-pyrrolidinyl)-1H-imidazol-5-yl)-2-pyrimidinyl)phenyl)-4-(trifluoromethyl)-1H-imidazol-2-yl)-1-pyrrolidinyl)-N,N-diethyl-1-oxo-2-propanamine]	1 to 99	
CC(=O)N1[C@@H](C)CC[C@H]1c1ncc(-c2ccc(-c3ccc(-c4cnc([C@@H]5CC[C@H](C)N5C(C)=O)[nH]4)cc3)cc2)[nH]1 (stereo in doubt) [Example M162, 2-((2S,5S)-1-acetyl-5-methyl-2-pyrrolidinyl)-4-(4′-(2-((2S,5S)-1-acetyl-5-methyl-2-pyrrolidinyl)-1H-imidazol-5-yl)-4-biphenylyl)-1H-imidazole]	1 to 99	
CCN(CC)[C@@H](C(=O)N1CCC[C@H]1c1ncc(-c2ccc(-c3ccc(-c4cnc([C@@H]5CCCN5C(=O)CC(Cc5ccccc5F)NC(=O)OC)[nH]4)cc3)cc2)[nH]1)c1ccccc1 (stereo in doubt) [cj-59, methyl ((1S)-3-((2S)-2-(5-(4′-(2-((2S)-1-((2R)-2-(diethylamino)-2-phenylacetyl)-2-pyrrolidinyl)-1H-imidazol-5-yl)-4-biphenylyl)-1H-imidazol-2-yl)-1-pyrrolidinyl)-1-(2-fluorobenzyl)-3-oxopropyl)carbamate]	0.001 to 0.999	
C[C@H]1OC(=O)NC1C(=O)N1CCC[C@H]1c1ncc(-c2ccc(-c3ccc(-c4cnc([C@@H]5CCCN5C(=O)C5NC(=O)O[C@@H]5C)[nH]4)cc3)cc2)[nH]1 (stereo in doubt) [cj-133, (4S,5R,4′S,5′R)-4,4′-(4,4′-biphenyldiylbis(1H-imidazole-5,2-diyl(2S)-2,1-pyrrolidinediylcarbonyl))bis(5-methyl-1,3-oxazolidin-2-one)]	1 to 99	

From patent US8574563B2 (Bristol-Myers Squibb Company, priority 2006, dated 2013)
